Measurements reported in PMC5218480 (PLoS ONE, 2017).

Tested on: MV-4-11 cells
Test: Gene expression microarray analysis (Affymetrix PrimeView) and GSEA
Type: cell-based, human
Parameters: RFU PODN (11730768_x_at) / Fold change /veh PODN (11730768_x_at) / RFU LINC00158 (11744669_a_at) / Fold change /veh LINC00158 (11744669_a_at) / RFU DUSP10 (11751237_a_at) / Fold change /veh DUSP10 (11751237_a_at) / RFU ID3 (11757404_x_at) / Fold change /veh ID3 (11757404_x_at) / RFU PLEKHG5 (11737974_s_at) / Fold change /veh PLEKHG5 (11737974_s_at) / RFU LRRC4B (11730491_at) / Fold change /veh LRRC4B (11730491_at) / RFU GIMAP4 (11747438_a_at) / Fold change /veh GIMAP4 (11747438_a_at) / RFU KRT8 (11758183_x_at) / Fold change /veh KRT8 (11758183_x_at) / RFU CNN1 (11734310_a_at) / Fold change /veh CNN1 (11734310_a_at) / RFU VPS37D (11726825_at) / Fold change /veh VPS37D (11726825_at) / RFU C10orf10 (11716522_x_at) / Fold change /veh C10orf10 (11716522_x_at) / RFU KIR2DL2 /// KIR2DL4 /// KIR2DL5A /// KIR2DL5B /// KIR2DS1 /// KIR2DS2 /// KIR2DS3 /// KIR2DS4 /// KIR3DL3 /// KIR3DL3 /// KIR3DS1 (11738374_at) / Fold change /veh KIR2DL2 /// KIR2DL4 /// KIR2DL5A /// KIR2DL5B /// KIR2DS1 /// KIR2DS2 /// KIR2DS3 /// KIR2DS4 /// KIR3DL3 /// KIR3DL3 /// KIR3DS1 (11738374_at) / RFU C1QL1 (11718748_at) / Fold change /veh C1QL1 (11718748_at) / RFU TMPRSS4 (11747572_a_at) / Fold change /veh TMPRSS4 (11747572_a_at) / RFU HAMP (11756126_x_at) / Fold change /veh HAMP (11756126_x_at) / RFU RNFT2 (11725882_a_at) / Fold change /veh RNFT2 (11725882_a_at) / RFU NR4A2 (11747474_a_at) / Fold change /veh NR4A2 (11747474_a_at) / RFU ABCC12 (11746883_a_at) / Fold change /veh ABCC12 (11746883_a_at) / RFU TMEM136 (11760407_x_at) / Fold change /veh TMEM136 (11760407_x_at) / RFU CLDN22 /// WWC2 (11732394_at) / Fold change /veh CLDN22 /// WWC2 (11732394_at) / RFU HLA-DPB1 (11760878_x_at) / Fold change /veh HLA-DPB1 (11760878_x_at) / RFU SPINT1 (11716480_a_at) / Fold change /veh SPINT1 (11716480_a_at) / RFU GAP43 (11754022_s_at) / Fold change /veh GAP43 (11754022_s_at) / RFU A4GNT (11735810_at) / Fold change /veh A4GNT (11735810_at) / RFU PRB3 (11715151_x_at) / Fold change /veh PRB3 (11715151_x_at) / RFU TUBB4B (11761932_at) / Fold change /veh TUBB4B (11761932_at) / RFU CAPN14 (11732068_a_at) / Fold change /veh CAPN14 (11732068_a_at) / RFU TMCC2 (11721928_a_at) / Fold change /veh TMCC2 (11721928_a_at) / RFU IRGQ (11745062_a_at) / Fold change /veh IRGQ (11745062_a_at) / RFU FAM174B (11720279_a_at) / Fold change /veh FAM174B (11720279_a_at) / RFU TMPRSS4 (11748680_a_at) / Fold change /veh TMPRSS4 (11748680_a_at) / RFU FAM212B (11763350_a_at) / Fold change /veh FAM212B (11763350_a_at) / RFU PLEKHG5 (11743358_a_at) / Fold change /veh PLEKHG5 (11743358_a_at) / RFU ZSCAN30 (11745921_a_at) / Fold change /veh ZSCAN30 (11745921_a_at) / RFU CMKLR1 (11741424_a_at) / Fold change /veh CMKLR1 (11741424_a_at) / RFU LOC101060620 /// MAPK8IP1 (11723275_at) / Fold change /veh LOC101060620 /// MAPK8IP1 (11723275_at) / RFU SPTSSB (11747773_x_at) / Fold change /veh SPTSSB (11747773_x_at) / RFU PRSS12 (11739890_at) / Fold change /veh PRSS12 (11739890_at) / RFU BIN1 (11741810_x_at) / Fold change /veh BIN1 (11741810_x_at) / RFU WNT11 (11732464_a_at) / Fold change /veh WNT11 (11732464_a_at) / RFU C10orf10 (11716521_a_at) / Fold change /veh C10orf10 (11716521_a_at) / RFU C5orf56 (11738089_at) / Fold change /veh C5orf56 (11738089_at) / RFU CYB561 (11721691_x_at) / Fold change /veh CYB561 (11721691_x_at) / RFU ANKRD19P (11752326_a_at) / Fold change /veh ANKRD19P (11752326_a_at) / RFU OR2T12 /// OR2T33 /// OR2T8 (11738714_s_at) / Fold change /veh OR2T12 /// OR2T33 /// OR2T8 (11738714_s_at) / RFU VCAN (11748164_a_at) / Fold change /veh VCAN (11748164_a_at) / RFU JSRP1 (11732532_at) / Fold change /veh JSRP1 (11732532_at) / RFU KRTAP10-11 (11738290_x_at) / Fold change /veh KRTAP10-11 (11738290_x_at) / RFU MYO3A (11730013_a_at) / Fold change /veh MYO3A (11730013_a_at) / RFU EBF3 (11725865_a_at) / Fold change /veh EBF3 (11725865_a_at) / RFU CAMK2N1 (11719241_x_at) / Fold change /veh CAMK2N1 (11719241_x_at) / RFU C5orf56 (11738088_a_at) / Fold change /veh C5orf56 (11738088_a_at) / RFU OLFML3 (11715873_a_at) / Fold change /veh OLFML3 (11715873_a_at) / RFU LOC100653217 /// NTM (11731650_a_at) / Fold change /veh LOC100653217 /// NTM (11731650_a_at) / RFU MAPK11 (11762145_a_at) / Fold change /veh MAPK11 (11762145_a_at) / RFU FIZ1 (11724087_x_at) / Fold change /veh FIZ1 (11724087_x_at) / RFU OASL (11726364_x_at) / Fold change /veh OASL (11726364_x_at) / RFU SOX15 (11748057_x_at) / Fold change /veh SOX15 (11748057_x_at) / RFU CD79A (11719716_a_at) / Fold change /veh CD79A (11719716_a_at) / RFU HIST1H1D (11736915_at) / Fold change /veh HIST1H1D (11736915_at) / RFU CASKIN2 (11723855_a_at) / Fold change /veh CASKIN2 (11723855_a_at) / RFU LOC730098 (11760151_x_at) / Fold change /veh LOC730098 (11760151_x_at) / RFU OR4N2 (11742367_at) / Fold change /veh OR4N2 (11742367_at) / RFU PRRT2 (11749266_a_at) / Fold change /veh PRRT2 (11749266_a_at) / RFU SNX32 (11753110_a_at) / Fold change /veh SNX32 (11753110_a_at) / RFU CDHR5 (11726645_a_at) / Fold change /veh CDHR5 (11726645_a_at) / RFU RCAN1 (11760418_a_at) / Fold change /veh RCAN1 (11760418_a_at) / RFU FAM167A (11723789_a_at) / Fold change /veh FAM167A (11723789_a_at) / RFU FAM26E (11764081_at) / Fold change /veh FAM26E (11764081_at) / RFU ISYNA1 (11749810_s_at) / Fold change /veh ISYNA1 (11749810_s_at) / RFU ACY1 (11761880_at) / Fold change /veh ACY1 (11761880_at) / RFU 11764098_at / Fold change /veh 11764098_at / RFU SAMD14 (11745864_x_at) / Fold change /veh SAMD14 (11745864_x_at) / RFU NPB (11741838_a_at) / Fold change /veh NPB (11741838_a_at) / RFU TMPRSS6 (11731388_a_at) / Fold change /veh TMPRSS6 (11731388_a_at) / RFU KRTAP10-2 (11738614_at) / Fold change /veh KRTAP10-2 (11738614_at) / RFU ARHGAP8 /// PRR5-ARHGAP8 (11727945_x_at) / Fold change /veh ARHGAP8 /// PRR5-ARHGAP8 (11727945_x_at) / RFU KRTAP5-7 /// NADSYN1 (11734609_at) / Fold change /veh KRTAP5-7 /// NADSYN1 (11734609_at) / RFU RASL12 (11751679_a_at) / Fold change /veh RASL12 (11751679_a_at) / RFU CDKN2B (11736163_a_at) / Fold change /veh CDKN2B (11736163_a_at) / RFU PRF1 (11729649_at) / Fold change /veh PRF1 (11729649_at) / RFU, ZNF638 /// ZNF638-IT1 / Fold change vs veh, ZNF638 /// ZNF638-IT1 / RFU, PANK3 / Fold change vs veh, PANK3 / RFU, SH3YL1 / Fold change vs veh, SH3YL1 / RFU, ZEB2 / Fold change vs veh, ZEB2 / RFU, NRIP1 / Fold change vs veh, NRIP1 / RFU, PTTG1IP / Fold change vs veh, PTTG1IP / RFU, CAPN2 / Fold change vs veh, CAPN2 / RFU, MED14 / Fold change vs veh, MED14 / RFU, SNORA58 / Fold change vs veh, SNORA58 / RFU, C1orf63 / Fold change vs veh, C1orf63 / RFU, LRRFIP1 / Fold change vs veh, LRRFIP1 / RFU, NDUFAF7 / Fold change vs veh, NDUFAF7 / RFU, SLC12A2 / Fold change vs veh, SLC12A2 / RFU, IBTK / Fold change vs veh, IBTK / RFU, ESF1 / Fold change vs veh, ESF1 / Fold change vs veh, TMEM50B / RFU, TAOK1 / Fold change vs veh, TAOK1 / RFU, ACBD3 / Fold change vs veh, ACBD3 / RFU, TMA16 / Fold change vs veh, TMA16 / RFU, RWDD3 / Fold change vs veh, RWDD3 / RFU, BCAT1 / Fold change vs veh, BCAT1 / RFU, EDEM3 / Fold change vs veh, EDEM3 / RFU, TMEM33 / Fold change vs veh, TMEM33 / RFU, WDR75 / Fold change vs veh, WDR75 / RFU, AHCTF1 / Fold change vs veh, AHCTF1 / RFU, TFRC / Fold change vs veh, TFRC / RFU, ZDHHC17 / Fold change vs veh, ZDHHC17 / RFU, NOM1 / Fold change vs veh, NOM1 / RFU, ARL8B / Fold change vs veh, ARL8B / RFU, ZBTB11 / Fold change vs veh, ZBTB11 / RFU, TAMM41 / Fold change vs veh, TAMM41 / RFU, KIAA1704 /// LOC100996395 / Fold change vs veh, KIAA1704 /// LOC100996395 / RFU, ING1 / Fold change vs veh, ING1 / RFU, TRMT61B / Fold change vs veh, TRMT61B / RFU, FUBP3 / Fold change vs veh, FUBP3 / RFU, TP53 / Fold change vs veh, TP53 / RFU, TNKS2 / Fold change vs veh, TNKS2 / RFU, ZFP14 / Fold change vs veh, ZFP14 / RFU, ACTR2 / Fold change vs veh, ACTR2 / RFU, PPP3R1 / Fold change vs veh, PPP3R1 / RFU, PIK3R1 / Fold change vs veh, PIK3R1 / RFU, HNRNPA1 / Fold change vs veh, HNRNPA1 / RFU, RNF170 / Fold change vs veh, RNF170 / RFU, ZNF28 / Fold change vs veh, ZNF28 / RFU, RNGTT / Fold change vs veh, RNGTT / RFU, OGT / Fold change vs veh, OGT / RFU, BRD1 / Fold change vs veh, BRD1 / RFU, MARS / Fold change vs veh, MARS / RFU, ZNF655 / Fold change vs veh, ZNF655 / RFU, FAHD1 / Fold change vs veh, FAHD1 / RFU, BDP1 / Fold change vs veh, BDP1 / RFU, LRRCC1 / Fold change vs veh, LRRCC1 / RFU, ARID1A / Fold change vs veh, ARID1A / RFU, ZNF146 / Fold change vs veh, ZNF146 / RFU, ZNF330 / Fold change vs veh, ZNF330 / RFU, GPN3 / Fold change vs veh, GPN3 / RFU, C9orf123 / Fold change vs veh, C9orf123 / RFU, N4BP2L2 / Fold change vs veh, N4BP2L2 / RFU, ARFIP1 / Fold change vs veh, ARFIP1 / RFU, FAM179B / Fold change vs veh, FAM179B / RFU, BCL10 / Fold change vs veh, BCL10 / RFU, UHRF1BP1L / Fold change vs veh, UHRF1BP1L / RFU, BET1 / Fold change vs veh, BET1 / RFU, CNOT2 / Fold change vs veh, CNOT2 / RFU, ZNF268 / Fold change vs veh, ZNF268 / Fold change vs veh, ZNF507 / RFU, DGCR2 / Fold change vs veh, DGCR2 / RFU, WDSUB1 / Fold change vs veh, WDSUB1 / Fold change vs veh, HSP90B1 /// MIR3652 / RFU, ADSS / Fold change vs veh, ADSS / RFU, GK / Fold change vs veh, GK / RFU, ZNF148 / Fold change vs veh, ZNF148 / RFU, TAF9 / Fold change vs veh, TAF9 / RFU, SLC1A5 / Fold change vs veh, SLC1A5 / RFU, SLMO2 / Fold change vs veh, SLMO2 / RFU, ABCC4 / Fold change vs veh, ABCC4 / RFU, LOC101060439 /// RAP1B / Fold change vs veh, LOC101060439 /// RAP1B / RFU, RFX7 / Fold change vs veh, RFX7 / RFU, GTPBP10 / Fold change vs veh, GTPBP10 / RFU, CNEP1R1 / Fold change vs veh, CNEP1R1 / RFU, BIVM-ERCC5 /// ERCC5 / Fold change vs veh, BIVM-ERCC5 /// ERCC5 / RFU, ILF3 / Fold change vs veh, ILF3 / RFU 11762660_at / Fold change /veh 11762660_at / RFU VCAN (11757783_s_at) / Fold change /veh VCAN (11757783_s_at) / RFU DDX43 (11728927_at) / Fold change /veh DDX43 (11728927_at) / RFU KRT8 (11758188_x_at) / Fold change /veh KRT8 (11758188_x_at) / RFU NKD1 (11759106_at) / Fold change /veh NKD1 (11759106_at) / RFU SRD5A1 (11742802_a_at) / Fold change /veh SRD5A1 (11742802_a_at) / RFU TPSAB1 /// TPSB2 (11721975_s_at) / Fold change /veh TPSAB1 /// TPSB2 (11721975_s_at) / RFU GSTM3 (11746129_a_at) / Fold change /veh GSTM3 (11746129_a_at) / RFU IL23R (11737362_x_at) / Fold change /veh IL23R (11737362_x_at) / RFU TMEM51 (11727254_a_at) / Fold change /veh TMEM51 (11727254_a_at) / RFU PIWIL2 (11732686_x_at) / Fold change /veh PIWIL2 (11732686_x_at) / RFU ORM1 (11744905_x_at) / Fold change /veh ORM1 (11744905_x_at) / RFU CCDC152 (11743942_at) / Fold change /veh CCDC152 (11743942_at) / RFU ECM1 (11717891_a_at) / Fold change /veh ECM1 (11717891_a_at) / RFU IL23R (11748794_a_at) / Fold change /veh IL23R (11748794_a_at) / RFU TNFAIP8L3 (11732012_x_at) / Fold change /veh TNFAIP8L3 (11732012_x_at) / RFU MBOAT4 (11741988_at) / Fold change /veh MBOAT4 (11741988_at) / RFU 11764193_at / Fold change /veh 11764193_at / RFU TMEM53 (11763286_at) / Fold change /veh TMEM53 (11763286_at) / RFU MAGEB2 (11727129_at) / Fold change /veh MAGEB2 (11727129_at) / RFU TMEM200A (11744735_a_at) / Fold change /veh TMEM200A (11744735_a_at) / RFU CCDC152 (11751479_a_at) / Fold change /veh CCDC152 (11751479_a_at) / RFU FAM211A (11726209_a_at) / Fold change /veh FAM211A (11726209_a_at) / RFU RGS16 (11746705_a_at) / Fold change /veh RGS16 (11746705_a_at) / RFU VCAN (11755009_s_at) / Fold change /veh VCAN (11755009_s_at) / RFU RHOB (11743442_s_at) / Fold change /veh RHOB (11743442_s_at) / RFU RGS16 (11720943_a_at) / Fold change /veh RGS16 (11720943_a_at) / RFU RGS16 (11720944_at) / Fold change /veh RGS16 (11720944_at) / RFU, VPS4B / Fold change vs veh, VPS4B / RFU, CREB1 / Fold change vs veh, CREB1 / RFU, DNAJC13 / Fold change vs veh, DNAJC13 / RFU, GNAQ / Fold change vs veh, GNAQ / RFU, CDK5R1 / Fold change vs veh, CDK5R1 / RFU, ZRANB3 / Fold change vs veh, ZRANB3 / RFU, CUL4A / Fold change vs veh, CUL4A / RFU, CCNY / Fold change vs veh, CCNY / RFU, UFL1 / Fold change vs veh, UFL1 / RFU, COG3 / Fold change vs veh, COG3 / RFU, DIAPH2 / Fold change vs veh, DIAPH2 / RFU, SKA2 / Fold change vs veh, SKA2 / RFU, AFF3 / Fold change vs veh, AFF3 / RFU, LMF1 / Fold change vs veh, LMF1 / RFU, IPO11 / Fold change vs veh, IPO11 / RFU, DFFB / Fold change vs veh, DFFB / RFU, FOXP1 / Fold change vs veh, FOXP1 / RFU, CARD8 / Fold change vs veh, CARD8 / RFU, STRN3 / Fold change vs veh, STRN3 / RFU, ADK / Fold change vs veh, ADK / RFU, RASSF2 / Fold change vs veh, RASSF2 / RFU, WIPF1 / Fold change vs veh, WIPF1 / RFU, LARP1B / Fold change vs veh, LARP1B / RFU, RASA1 / Fold change vs veh, RASA1 / RFU, RB1 / Fold change vs veh, RB1 / RFU, PPFIA1 / Fold change vs veh, PPFIA1 / RFU, MAT2A / Fold change vs veh, MAT2A / RFU, CCT5 / Fold change vs veh, CCT5 / RFU, WDR92 / Fold change vs veh, WDR92 / RFU, CUX1 / Fold change vs veh, CUX1 / RFU, TTC7A / Fold change vs veh, TTC7A / RFU, TMEM135 / Fold change vs veh, TMEM135 / RFU, DEPTOR / Fold change vs veh, DEPTOR / RFU, CPM / Fold change vs veh, CPM / RFU, DNAJB6 / Fold change vs veh, DNAJB6 / RFU, CACNA2D3 / Fold change vs veh, CACNA2D3 / RFU, DTX4 / Fold change vs veh, DTX4 / RFU, TFCP2 / Fold change vs veh, TFCP2 / RFU, GMCL1 /// GMCL1P1 / Fold change vs veh, GMCL1 /// GMCL1P1 / RFU, AEBP2 / Fold change vs veh, AEBP2 / RFU, SNHG1 /// SNORD22 /// SNORD25 /// SNORD26 /// SNORD27 /// SNORD28 /// SNORD29 /// SNORD31 / Fold change vs veh, SNHG1 /// SNORD22 /// SNORD25 /// SNORD26 /// SNORD27 /// SNORD28 /// SNORD29 /// SNORD31 / Fold change (Aza/veh), C12orf56 (ProbeSet 11735607_a_at) / Fold change (ACY-1035/veh), C12orf56 (ProbeSet 11735607_a_at) / Fold change (Aza/veh), FGFR1OP (ProbeSet 11751329_s_at) / Fold change (ACY-1035/veh), FGFR1OP (ProbeSet 11751329_s_at) / Fold change (Aza/veh), VPS36 (ProbeSet 11739960_a_at) / Fold change (ACY-1035/veh), VPS36 (ProbeSet 11739960_a_at) / RFU SYPL1 (11715823_x_at) / Fold change /veh SYPL1 (11715823_x_at) / RFU IGFBP7 (11715501_s_at) / Fold change /veh IGFBP7 (11715501_s_at) / RFU REEP3 (11722064_at) / Fold change /veh REEP3 (11722064_at) / RFU IGLL1 (11728026_x_at) / Fold change /veh IGLL1 (11728026_x_at): dose or concentration left out as unconfirmed
Conditions: MV-4-11 cells, 48 hours

Nc1ccc(-c2cccs2)cc1NC(=O)c1ccc2c(c1)cc(C1CC1)n2CCN1CCOCC1 [ACY-1035]
Fold change /veh PODN (11730768_x_at): 1.05
